In patent publication EP3130589A1, “HETEROCYCLIC AZA COMPOUNDS” (Grünenthal GmbH, priority 2015, dated 2017):

Biological target: T1, TRPV1 human (Homo sapiens, UniProt Q8NER1)
T1 construct: expressed in transfected cells; host or cells: CHO K1 cells
Experiment: Functional testing on the vanilloid receptor 1 (VR1/TRPV1): FLIPR Ca2+ influx assay, inhibition of capsaicin (CAP) stimulation
Format: cell-based
Conditions: functional (f) FLIPR assay, capsaicin (CAP) 100 nM; Ki from IC50 by Cheng-Prusoff equation
Method: Furthermore, preference may be given to compounds according to the invention that cause a 50 per cent displacement of capsaicin, which is present at a concentration of 100 nM, in a FLIPR assay with CHO K1 cells which were transfected with the human VR1 gene at a concentration of less than 6,000 nM, preferably less than 5,000 nM, more preferably less that 3,000 nM or less than 1,000 nM and particularly preferably less than 300 nM, most particularly preferably less than 100 nM, even more preferably less than 75 nM, additionally preferably less than 50 nM, most preferably less than 10 nM.
In the process, the Ca^2+ influx is quantified in the FLIPR assay with the aid of a Ca^2+-sensitive dye (type Fluo-4, Molecular Probes Europe BV, Leiden, the Netherlands) in a fluorescent imaging plate reader (FLIPR, Molecular Devices, Sunnyvale, USA), as described hereinafter.
Functional testing carried out on the vanilloid receptor 1 (VRI/TRPV1 receptor) […]
The number of cells in the suspension is set to 3 x 10^5 per mL and 150 µL of this suspension are in each case introduced into a recess in the cell culture plates coated as described hereinbefore. In the incubator the plates are left for two to three days at 37°C, 5 vol.-% of CO2 and 95 % relative humidity. Subsequently, the cells are loaded with 2 µM of Fluo-4 and 0.01 vol.-% of Pluronic F127 (Molecular Probes Europe BV, Leiden, the Netherlands) in HBSS buffer for 30 min at 37°C, washed 3 times with HBSS buffer and after further incubation for 15 min at RT used for Ca^2+ measurement in a FLIPR assay. The Ca^2+-dependent fluorescence is in this case measured before and after the addition of substances (λex = 488 nm, λem = 540 nm). Quantification is carried out by measuring the highest fluorescence intensity (FC, fluorescence counts) over time.
The FLIPR protocol consists of 2 substance additions. First the compounds to be tested (10 µM) are pipetted onto the cells and the Ca^2+ influx is compared with the control (capsaicin 10 µM). This provides the result in % activation based on the Ca^2+ signal after the addition of 10 µM of capsaicin (CP). After 5 min incubation, 100 nM of capsaicin are applied and the Ca^2+ influx is also determined. Desensitising agonists and antagonists lead to suppression of the Ca^2+ influx. The % inhibition is calculated compared to the maximum achievable inhibition with 10 µM of capsazepine.
Triple analyses (n=3) are carried out and repeated in at least 3 independent experiments (N=4). Starting from the percentage displacement caused by different concentrations of the compounds to be tested of general formula I, IC50 inhibitory concentrations which cause a 50% displacement of capsaicin were calculated.
Ki values for the test substances were obtained by conversion by means of the Cheng-Prusoff equation (Cheng, Prusoff; Biochem. Pharmacol. 22, 3099-3108, 1973).

T1 sequence (Q8NER1 whole entry): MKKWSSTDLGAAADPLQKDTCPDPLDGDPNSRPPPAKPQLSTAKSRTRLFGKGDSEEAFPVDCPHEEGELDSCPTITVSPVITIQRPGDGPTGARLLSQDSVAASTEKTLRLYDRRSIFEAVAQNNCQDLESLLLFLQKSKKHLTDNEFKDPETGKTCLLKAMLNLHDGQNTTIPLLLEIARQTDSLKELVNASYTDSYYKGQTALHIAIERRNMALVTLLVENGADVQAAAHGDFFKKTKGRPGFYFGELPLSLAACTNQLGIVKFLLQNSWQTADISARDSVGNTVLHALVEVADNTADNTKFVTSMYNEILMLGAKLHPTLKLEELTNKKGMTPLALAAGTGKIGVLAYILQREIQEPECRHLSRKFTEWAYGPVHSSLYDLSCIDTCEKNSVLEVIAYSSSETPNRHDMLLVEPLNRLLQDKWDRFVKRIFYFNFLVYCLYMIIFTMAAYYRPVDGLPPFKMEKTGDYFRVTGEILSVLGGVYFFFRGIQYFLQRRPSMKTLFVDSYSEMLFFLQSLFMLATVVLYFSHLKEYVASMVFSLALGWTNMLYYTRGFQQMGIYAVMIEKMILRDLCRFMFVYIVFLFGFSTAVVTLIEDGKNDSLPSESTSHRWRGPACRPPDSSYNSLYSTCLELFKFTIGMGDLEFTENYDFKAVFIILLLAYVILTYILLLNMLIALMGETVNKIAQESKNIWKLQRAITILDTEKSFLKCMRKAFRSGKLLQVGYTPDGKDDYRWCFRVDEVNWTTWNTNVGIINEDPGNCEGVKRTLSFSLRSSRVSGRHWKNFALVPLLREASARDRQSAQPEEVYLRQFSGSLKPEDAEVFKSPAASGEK

Ki: 0.3 nM
SMILES: CC1CCN(c2nc(C(F)(F)F)ccc2CNC(=O)Cc2cn(C)c3ccc(O)cc23)CC1 [example compound 11, 2-(5-hydroxy-1-methyl-1H-indol-3-yl)-N-((2-(4-methylpiperidin-1-yl)-6-(trifluoromethyl)pyridin-3-yl)methyl)acetamide]
